Assays:
Hepatitis C virus [1] = test: Antiviral activity against HCV genotype 1b infected in human HuH7 cells assessed as inhibition of viral RNA replication after 72 hrs by luciferase reporter gene assay; assay type: functional, organism-based, Hepacivirus hominis; details: Huh-7, 72 h
[2] = Cytotoxicity against human HuH7 cells after 72 hrs by MTT assay; assay type: cell-based, Huh-7
[3] = Cytotoxicity against human HEK293 cells after 72 hrs by MTT assay; assay type: cell-based
[4] = Cytotoxicity against human LO2 cells after 72 hrs by MTT assay; assay type: cell-based, L02
[5] = Selectivity index, ratio of CC50 for human HuH7 cells to EC50 for HCV genotype 1b infected in human HuH7 cells; parameters: species or system Huh-7
Hepatitis C virus [6] = test: Antiviral activity against HCV genotype 1b infected in human HuH7 cells assessed as inhibition of viral RNA replication at 20 uM after 72 hrs by luciferase reporter gene assay; assay type: functional, Hepacivirus hominis; details: Huh-7, 72 h
[7] = biological target: T1, Inhibitor of nuclear factor kappa-B kinase subunit beta (Homo sapiens) (UniProt O14920); test: Inhibition of human IKKbeta at 10 uM after 40 mins by scintillation counting analysis in presence of [gamma-33P]ATP
T1 sequence (whole entry): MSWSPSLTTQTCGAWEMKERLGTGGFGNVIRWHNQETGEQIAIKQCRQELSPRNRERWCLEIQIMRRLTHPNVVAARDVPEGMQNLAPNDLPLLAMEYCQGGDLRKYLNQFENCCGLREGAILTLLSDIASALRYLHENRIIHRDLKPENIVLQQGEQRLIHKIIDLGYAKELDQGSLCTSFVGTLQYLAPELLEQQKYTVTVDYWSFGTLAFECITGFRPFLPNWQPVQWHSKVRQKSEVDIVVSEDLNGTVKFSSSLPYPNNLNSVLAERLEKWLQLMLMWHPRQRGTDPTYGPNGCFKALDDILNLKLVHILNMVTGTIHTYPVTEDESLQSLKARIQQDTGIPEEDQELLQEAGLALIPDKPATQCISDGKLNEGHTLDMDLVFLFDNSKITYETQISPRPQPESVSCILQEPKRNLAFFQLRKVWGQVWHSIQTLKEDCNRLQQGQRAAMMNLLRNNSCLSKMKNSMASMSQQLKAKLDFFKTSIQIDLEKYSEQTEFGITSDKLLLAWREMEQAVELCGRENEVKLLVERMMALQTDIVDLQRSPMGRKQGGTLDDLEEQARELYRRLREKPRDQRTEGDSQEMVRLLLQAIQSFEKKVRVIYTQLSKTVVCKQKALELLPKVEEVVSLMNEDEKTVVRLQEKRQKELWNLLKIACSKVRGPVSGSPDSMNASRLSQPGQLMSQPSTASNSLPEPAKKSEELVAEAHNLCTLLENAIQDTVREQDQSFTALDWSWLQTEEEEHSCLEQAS

[8] = biological target: T2, Inhibitor of nuclear factor kappa-B kinase subunit alpha (Homo sapiens) (UniProt O15111); test: Inhibition of human IKKalpha at 10 uM after 40 mins by scintillation counting analysis in presence of [gamma-33P]ATP
T2 sequence (whole entry): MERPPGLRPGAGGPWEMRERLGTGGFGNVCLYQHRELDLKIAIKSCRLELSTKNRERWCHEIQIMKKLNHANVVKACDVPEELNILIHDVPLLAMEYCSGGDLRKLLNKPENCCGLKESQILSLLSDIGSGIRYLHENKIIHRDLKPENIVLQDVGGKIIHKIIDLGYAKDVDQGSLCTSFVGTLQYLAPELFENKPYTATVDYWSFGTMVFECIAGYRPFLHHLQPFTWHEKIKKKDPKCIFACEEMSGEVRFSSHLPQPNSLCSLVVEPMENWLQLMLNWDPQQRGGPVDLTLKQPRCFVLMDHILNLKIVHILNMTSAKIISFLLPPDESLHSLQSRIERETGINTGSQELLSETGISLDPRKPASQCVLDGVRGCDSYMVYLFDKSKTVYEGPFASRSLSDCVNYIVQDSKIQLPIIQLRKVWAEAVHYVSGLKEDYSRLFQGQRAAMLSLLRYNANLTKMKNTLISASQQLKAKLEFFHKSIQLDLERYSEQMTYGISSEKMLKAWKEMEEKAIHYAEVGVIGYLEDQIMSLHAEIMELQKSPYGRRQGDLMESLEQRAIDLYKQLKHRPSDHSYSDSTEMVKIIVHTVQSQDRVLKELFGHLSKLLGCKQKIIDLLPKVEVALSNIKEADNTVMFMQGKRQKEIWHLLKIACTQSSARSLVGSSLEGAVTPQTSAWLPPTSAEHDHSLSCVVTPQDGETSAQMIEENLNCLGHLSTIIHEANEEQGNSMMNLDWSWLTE

Nc1c(C(=O)NCc2cccs2)sc2nc(-c3ccccc3)cc(C(F)(F)F)c12
EC50 (Hepatitis C virus [1]): 8.2 µM
CC50 at 72 h [2]: > 20 µM

Nc1c(C(=O)N2CCC(=O)CC2)sc2nc(-c3ccccc3)cc(C(F)(F)F)c12
EC50 (Hepatitis C virus [1]): > 20 µM
CC50 at 72 h [2]: > 20 µM

O=C(c1cc2c(C(F)(F)F)cc(-c3ccccc3)nc2s1)N1CCOCC1
EC50 (Hepatitis C virus [1]): 4.5 µM
CC50 at 72 h [2]: > 100 µM
CC50 at 72 h [3]: 92.6 µM
CC50 at 72 h [4]: > 100 µM
Ratio CC50/EC50 [5]: >22.2

CCOC(=O)c1sc2nc(-c3ccco3)cc(C(F)(F)F)c2c1N
EC50 (Hepatitis C virus [1]): 5.7 µM
CC50 at 72 h [2]: > 20 µM

COc1cccc(-c2cc(C(F)(F)F)c3c(N)c(C(N)=O)sc3n2)c1
inhibition at 20 µM (Hepatitis C virus [6]): 45%
CC50 at 72 h [2]: > 20 µM

NC(=O)c1sc2nc(-c3ccccc3)cc(C(F)(F)F)c2c1N
EC50 (Hepatitis C virus [1]): 8.2 µM
CC50 at 72 h [2]: > 20 µM

COc1ccccc1-c1cc(C(F)(F)F)c2c(N)c(C(N)=O)sc2n1
EC50 (Hepatitis C virus [1]): 14.3 µM
CC50 at 72 h [2]: > 20 µM

Nc1c(C(=O)N2CCOCC2)oc2nc(-c3ccccc3)cc(C(F)(F)F)c12
EC50 (Hepatitis C virus [1]): 11.2 µM
CC50 at 72 h [2]: > 20 µM

CCOC(=O)c1sc2nc(-c3cccs3)cc(C(F)(F)F)c2c1N
EC50 (Hepatitis C virus [1]): 10 µM
CC50 at 72 h [2]: > 20 µM

Nc1c(C(=O)N2CCOCC2)sc2nc(-c3ccc(Cl)c(Cl)c3)cc(C(F)(F)F)c12
EC50 (Hepatitis C virus [1]): > 20 µM
CC50 at 72 h [2]: > 20 µM

Nc1c(C(=O)N2CCNCC2)sc2nc(-c3ccccc3)cc(C(F)(F)F)c12
EC50 (Hepatitis C virus [1]): 9.6 µM
CC50 at 72 h [2]: > 20 µM

Nc1c(C(=O)N2CCOCC2)sc2nc(-c3ccccc3)ccc12
EC50 (Hepatitis C virus [1]): 17.2 µM
CC50 at 72 h [2]: > 20 µM

Nc1c(C(=O)N2CCOCC2)sc2nc3c(c(C(F)(F)F)c12)CCc1ccccc1-3
EC50 (Hepatitis C virus [1]): 3.9 µM
CC50 at 72 h [2]: > 100 µM
CC50 at 72 h [3]: 72.7 µM
CC50 at 72 h [4]: > 100 µM
Ratio CC50/EC50 [5]: >25.6

CN1CCN(C(=O)c2sc3nc(-c4ccccc4)cc(C(F)(F)F)c3c2N)CC1
EC50 (Hepatitis C virus [1]): 11.4 µM
CC50 at 72 h [2]: > 20 µM

COc1cccc(-c2cc(C(F)(F)F)c3c(N)c(C(=O)N4CCOCC4)sc3n2)c1
EC50 (Hepatitis C virus [1]): 10.8 µM
CC50 at 72 h [2]: > 20 µM

COc1ccc(-c2ccc3c(N)c(C(N)=O)sc3n2)cc1
EC50 (Hepatitis C virus [1]): > 20 µM
CC50 at 72 h [2]: < 0.4 µM

CCOC(=O)c1oc2nc(-c3ccccc3)cc(C(F)(F)F)c2c1N
EC50 (Hepatitis C virus [1]): 6.8 µM
CC50 at 72 h [2]: > 20 µM

CCOC(=O)c1oc2nc(-c3cccs3)cc(C(F)(F)F)c2c1N
EC50 (Hepatitis C virus [1]): 18.5 µM
CC50 at 72 h [2]: > 20 µM

COc1ccc(-c2cc(C(F)(F)F)c3c(N)c(C(=O)N4CCOCC4)sc3n2)cc1
EC50 (Hepatitis C virus [1]): 10.3 µM
CC50 at 72 h [2]: > 20 µM

Nc1c(C(=O)N2CCOCC2)sc2nc(-c3ccco3)cc(C(F)(F)F)c12
EC50 (Hepatitis C virus [1]): 9.6 µM
CC50 at 72 h [2]: > 20 µM

Nc1c(C(=O)N2CCc3sccc3C2)sc2nc(-c3ccccc3)cc(C(F)(F)F)c12
EC50 (Hepatitis C virus [1]): 12.5 µM
CC50 at 72 h [2]: > 20 µM

CCOC(=O)c1sc2nc(-c3ccccc3)cc(C(F)(F)F)c2c1N
EC50 (Hepatitis C virus [1]): 19.3 µM
CC50 at 72 h [2]: > 20 µM

Nc1c(C(=O)O)sc2nc(-c3ccccc3)cc(C(F)(F)F)c12
EC50 (Hepatitis C virus [1]): > 20 µM
CC50 at 72 h [2]: > 20 µM

CCN(CC)C(=O)c1sc2nc(-c3ccccc3)cc(C(F)(F)F)c2c1N
EC50 (Hepatitis C virus [1]): 3.5 µM
CC50 at 72 h [2]: > 100 µM
CC50 at 72 h [3]: > 100 µM
CC50 at 72 h [4]: > 100 µM
Ratio CC50/EC50 [5]: >28.6

Cc1cc(-c2ccccc2)nc2sc(C(=O)N3CCOCC3)c(N)c12
EC50 (Hepatitis C virus [1]): 5.8 µM
CC50 at 72 h [2]: > 20 µM

Nc1c(C(=O)NCc2ccccc2)sc2nc(-c3ccccc3)cc(C(F)(F)F)c12
EC50 (Hepatitis C virus [1]): > 20 µM
CC50 at 72 h [2]: > 20 µM

Nc1c(C(=O)N2CCOCC2)sc2nc(-c3ccccc3)cc(C(F)(F)F)c12
EC50 (Hepatitis C virus [1]): 3.3 µM
CC50 at 72 h [2]: > 100 µM
CC50 at 72 h [3]: 85.1 µM
CC50 at 72 h [4]: 94.4 µM
Ratio CC50/EC50 [5]: >30.3

COc1cccc(-c2ccc3c(N)c(C(N)=O)sc3n2)c1
EC50 (Hepatitis C virus [1]): > 20 µM
CC50 at 72 h [2]: < 0.4 µM

CN(C)C(=O)c1sc2nc(-c3ccccc3)cc(C(F)(F)F)c2c1N
EC50 (Hepatitis C virus [1]): 8.2 µM
CC50 at 72 h [2]: > 20 µM

NC(=O)c1sc2nc(C3CC3)cc(C(F)(F)F)c2c1N
EC50 (Hepatitis C virus [1]): 12.2 µM
CC50 at 72 h [2]: > 20 µM

Nc1c(C(=O)N2CCn3c(nnc3C(F)(F)F)C2)sc2nc(-c3ccccc3)cc(C(F)(F)F)c12
EC50 (Hepatitis C virus [1]): 3.3 µM
CC50 at 72 h [2]: 45.2 µM
CC50 at 72 h [3]: 28 µM
CC50 at 72 h [4]: 40.7 µM
Ratio CC50/EC50 [5]: 13.7

Nc1c(C(=O)N2CCOCC2)sc2nc(-c3ccc(F)cc3)cc(C(F)(F)F)c12
EC50 (Hepatitis C virus [1]): 18.6 µM
CC50 at 72 h [2]: > 20 µM

Nc1c(C(=O)N2CCOCC2)sc2nc(-c3cnccn3)cc(C(F)(F)F)c12
EC50 (Hepatitis C virus [1]): > 20 µM
CC50 at 72 h [2]: > 20 µM

Nc1c(C(=O)N2CCOCC2)sc2nc(C3CC3)cc(C(F)(F)F)c12
EC50 (Hepatitis C virus [1]): 9.7 µM
CC50 at 72 h [2]: > 20 µM

CC(C)(C)OC(=O)N1CCN(C(=O)c2sc3nc(-c4ccccc4)cc(C(F)(F)F)c3c2N)CC1
EC50 (Hepatitis C virus [1]): > 20 µM
CC50 at 72 h [2]: > 20 µM

Nc1c(C(=O)N2CCOCC2)sc2nc(-c3cccc(F)c3)cc(C(F)(F)F)c12
EC50 (Hepatitis C virus [1]): 6.7 µM
CC50 at 72 h [2]: > 20 µM

COc1ccccc1-c1cc(C(F)(F)F)c2c(N)c(C(=O)N3CCOCC3)sc2n1
EC50 (Hepatitis C virus [1]): 8.3 µM
CC50 at 72 h [2]: > 20 µM

Nc1c(C(=O)N2CCOCC2)sc2nc(-c3ccccc3F)cc(C(F)(F)F)c12
EC50 (Hepatitis C virus [1]): 17.6 µM
CC50 at 72 h [2]: > 20 µM

Nc1c(C(=O)N2CCSCC2)sc2nc(-c3ccccc3)cc(C(F)(F)F)c12
EC50 (Hepatitis C virus [1]): 7.2 µM
CC50 at 72 h [2]: > 20 µM

Nc1c(C(=O)N2CCOCC2)sc2nc(-c3cccs3)cc(C(F)(F)F)c12
EC50 (Hepatitis C virus [1]): 6.5 µM
CC50 at 72 h [2]: > 20 µM

CCOC(=O)c1sc2nc(C3CC3)cc(C(F)(F)F)c2c1N
EC50 (Hepatitis C virus [1]): 6.8 µM
CC50 at 72 h [2]: > 20 µM

Nc1c(C(=O)N2CCOCC2)sc2nc(-c3nccs3)cc(C(F)(F)F)c12
EC50 (Hepatitis C virus [1]): 8.9 µM
CC50 at 72 h [2]: > 20 µM

Nc1c(C(=O)NC2CCCC2)sc2nc(-c3ccccc3)cc(C(F)(F)F)c12
EC50 (Hepatitis C virus [1]): 5.5 µM
CC50 at 72 h [2]: > 20 µM

COc1ccc(-c2cc(C(F)(F)F)c3c(N)c(C(N)=O)sc3n2)cc1
EC50 (Hepatitis C virus [1]): 4 µM
CC50 at 72 h [2]: 46.4 µM
CC50 at 72 h [3]: 24.7 µM
inhibition [7]: 6%
CC50 at 72 h [4]: 26.2 µM
Ratio CC50/EC50 [5]: 11.6
inhibition [8]: 7%

COc1ccccc1-c1ccc2c(N)c(C(N)=O)sc2n1
EC50 (Hepatitis C virus [1]): > 20 µM
CC50 at 72 h [2]: > 20 µM

Nc1c(C(=O)NCc2cccs2)oc2nc(-c3ccccc3)cc(C(F)(F)F)c12
EC50 (Hepatitis C virus [1]): 9.8 µM
CC50 at 72 h [2]: > 20 µM

Nc1c(C(=O)N2CCCCC2)sc2nc(-c3ccccc3)cc(C(F)(F)F)c12
EC50 (Hepatitis C virus [1]): 5.9 µM
CC50 at 72 h [2]: > 20 µM

Source: ChEMBL document CHEMBL3124910, “Discovery and structure-activity relationships study of novel thieno[2,3-b]pyridine analogues as hepatitis C virus inhibitors” (Bioorg Med Chem Lett, 2014)
